Patent US20260021090A1, “METHODS OF ADM[…]” (Trevi Therapeutics, Inc., priority 2022, published 2026)
Read-outs that look alike come from different tables or passages of the source.

Tests used:
[1] = race (Caucasian vs African American) or BMI
clinical = details: human, plasma, po, absolute bioavailability, oral administration
[2] = IV, cited from earlier work
[3] = injectable formulations (IV or IM or SC); cited from earlier work

## Cl.Oc1ccc2c3c1OC1[C@@H](O)CC[C@@]4(O)[C@@H](C2)N(CC2CCC2)CC[C@]314 (stereo partly drawn) [nalbuphine, 17-(cyclobutylmethyl)-4,5α-epoxymorphinian-3, 6α, 14-triol, hydrochloride]
[1]
  effect on CL/F due to race or BMI: no observable effect
clinical; non-elderly subjects
  bioavailability: 11%
clinical; subjects aged older than 65 years
  bioavailability: ~44%
[2]; across the age groups
  volume of distribution: comparable across the age groups
[2]; children between 1.5 and 8.5 yrs
  elimination half-life (T½): 0.9 h
[2]; elderly subjects 65-90 yrs
  elimination half-life (T½): 2.3 h
[2]; young adults 23-32 yr of age
  elimination half-life (T½): 1.96 h
[3]
  half-life: 2 to 3 h
